# Source: US12612424B2, “HPK1 inhibitors and uses thereof” (Regor Pharmaceuticals, Inc., priority 2019, dated 2026)
# Assays:
# HPK1 = HPK1 (Homo sapiens, UniProt Q92918); assay: HPK1 biochemical assay (ADP-GLO Kinase Assay); conditions: B*: testing performed in a first testing facility; read-out: HPK1 IC50 (nM) Relative, B*
# Procedure, shortened: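 HPK1 (0.6 ng/μL final) activity was followed with MBP substrate and 10 μM ATP in Tris pH 7.5/MgCl2/BSA/DTT buffer, measured by ADP-Glo luminescence. Compounds were tested as 3-fold dilutions from 10 μM. IC50 came from a three-parameter logistic fit, with inhibition normalised to high/low controls.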
# JAK3 = molecular target: T1, JAK3 (Homo sapiens, UniProt P52333); assay: JAK3 biochemical assay (ADP-GLO Kinase Assay); conditions: for IC50: B*: testing performed in a first testing facility, read-out: JAK3 IC50 (nM) Relative, B*; for JAKs/HPK1 IC50 Ratio, B*: ratio of JAK3 IC50 to HPK1 IC50, first testing facility
# T1 construct: purchased Thermo fisher PV3855
# Procedure, shortened: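 Human JAK3 (0.78 ng) with 0.2 μg/μL Poly(E4Y1) and 4 μM ATP in 40 mM Tris pH 7.5, 20 mM MgCl2, 0.1 mg/ml BSA, 50 μM DTT, 1% DMSO; 60 min at 25 °C. ADP formed read by ADP-Glo luminescence. 10-dose 3-fold series from 10 μM; IC50 by three-parameter logistic fit.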
# T1 sequence (P52333 781-1124 limits assumed): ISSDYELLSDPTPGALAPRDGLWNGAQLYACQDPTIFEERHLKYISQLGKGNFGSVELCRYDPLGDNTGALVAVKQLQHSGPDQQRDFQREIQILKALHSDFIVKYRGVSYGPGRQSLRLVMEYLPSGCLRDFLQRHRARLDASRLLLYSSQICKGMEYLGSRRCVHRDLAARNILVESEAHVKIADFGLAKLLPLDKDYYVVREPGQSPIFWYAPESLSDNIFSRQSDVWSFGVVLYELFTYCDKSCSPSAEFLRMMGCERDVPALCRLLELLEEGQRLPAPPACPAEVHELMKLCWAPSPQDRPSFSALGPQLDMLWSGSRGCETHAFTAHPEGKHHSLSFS
# Sequence of HPK1 (Q92918 whole entry): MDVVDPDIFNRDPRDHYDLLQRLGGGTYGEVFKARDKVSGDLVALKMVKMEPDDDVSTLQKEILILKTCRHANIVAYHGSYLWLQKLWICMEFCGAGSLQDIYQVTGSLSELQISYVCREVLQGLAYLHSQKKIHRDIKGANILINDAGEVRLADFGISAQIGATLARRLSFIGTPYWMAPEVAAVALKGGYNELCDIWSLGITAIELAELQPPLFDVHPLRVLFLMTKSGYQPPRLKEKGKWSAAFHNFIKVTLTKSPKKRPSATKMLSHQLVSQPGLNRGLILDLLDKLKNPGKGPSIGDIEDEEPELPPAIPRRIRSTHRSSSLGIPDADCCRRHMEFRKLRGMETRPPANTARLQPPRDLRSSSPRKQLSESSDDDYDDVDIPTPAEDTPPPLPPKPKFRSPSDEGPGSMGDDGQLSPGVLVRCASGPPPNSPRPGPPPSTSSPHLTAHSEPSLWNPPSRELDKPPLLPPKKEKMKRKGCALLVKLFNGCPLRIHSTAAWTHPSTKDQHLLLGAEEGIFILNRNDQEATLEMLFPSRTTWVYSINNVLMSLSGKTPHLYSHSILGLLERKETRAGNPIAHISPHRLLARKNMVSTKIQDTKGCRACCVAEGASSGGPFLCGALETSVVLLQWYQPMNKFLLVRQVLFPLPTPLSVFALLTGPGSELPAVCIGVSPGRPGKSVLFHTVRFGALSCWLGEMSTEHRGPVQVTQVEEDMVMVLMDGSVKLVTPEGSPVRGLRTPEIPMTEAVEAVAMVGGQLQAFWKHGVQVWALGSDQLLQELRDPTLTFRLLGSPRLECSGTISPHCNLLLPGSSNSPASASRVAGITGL
SMILES,IC50 (HPK1) [nM],IC50 (JAK3) [nM],"JAKs/HPK1 IC50 Ratio, B* (JAK3)"
COc1cc2c(cc1Nc1ncc(Cl)c(N3CC(C)(CC(=O)O)c4ccc(F)cc43)n1)CN(C)CC2 (centres unmarked) [Example 151],≤ 100,≤ 100,187
COc1cc2c(cc1Nc1ncc(Cl)c(N3CCc4cc(P(C)(C)=O)ccc43)n1)CN(C)CC2 [Example 86],≤ 100,> 1000,67
COc1cc2c(cc1Nc1ncc(Cl)c(-n3cc(C4(O)COC4)c4ccccc43)n1)CN(C)CC2 [Example 93],100 to 500,> 1000,
"COc1cc2c(cc1Nc1ncc(Cl)c(N3CC(C)(CC(=O)O)c4cc(F)ccc43)n1)CN(C)CC2 (centres unmarked) [Example 150, 2-(1-(5-Chloro-2-((6-methoxy-2-methyl-1,2,3,4-tetrahydroisoquinolin-7-yl)amino)pyrimidin-4-yl)-5-fluoro-3-methylindolin-3-yl)acetic acid]",≤ 100,100 to 500,171
"COc1cc2c(cc1Nc1ncc(Cl)c(-n3cc(CC(=O)OC(C)C)c4ccccc43)n1)CN(C)CC2 [Example 130, Isopropyl 2-(1-(5-chloro-2-((6-methoxy-2-methyl-1,2,3,4-tetrahydroisoquinolin-7-yl)amino)pyrimidin-4-yl)-1H-indol-3-yl)acetate]",≤ 100,> 1000,>243
"COc1cc2c(cc1Nc1ncc(Cl)c(N3CC(C)(CC(=O)O)c4ccccc43)n1)CN(C)CC2 (single isomer, unassigned) [Example 148]",≤ 100,≤ 100,209
COc1cc2c(cc1Nc1ncc(Cl)c(N3CC(C(=O)NS(C)(=O)=O)c4ccccc43)n1)CN(C)CC2 (centres unmarked) [Example 98],≤ 100,> 1000,508

# Now from value to compound:
IC50 (HPK1) [nM],IC50 (JAK3) [nM],"JAKs/HPK1 IC50 Ratio, B* (JAK3)",SMILES
≤ 100,≤ 100,100,CNC(=O)C1(C)CN(c2nc(Nc3cc4c(cc3OC)CCN(C)C4)ncc2Cl)c2ccccc21 (centres unmarked) [Example 122]
≤ 100,≤ 100,60,COc1cc2c(cc1Nc1ncc(Cl)c(N3CC(C)(CO)c4ccccc43)n1)CN(C)CC2 (centres unmarked) [Example 123]
≤ 100,100 to 500,430,COc1cc2c(cc1Nc1ncc(Cl)c(N3CC(C)(CC(=O)O)c4cc(F)c(F)cc43)n1)CN(C)CC2 (centres unmarked) [Example 154]
≤ 100,500 to 1000,444,"COc1cc2c(cc1Nc1ncc(Cl)c(N3CC(S(C)(=O)=O)c4ccccc43)n1)CN(C)CC2 (centres unmarked) [Example 81, N-(5-chloro-4-(3-(methylsulfonyl)indolin-1-yl)pyrimidin-2-yl)-6-methoxy-2-methyl-1,2,3,4-tetrahydroisoquinolin-7-amine]"
≤ 100,> 1000,373,"COc1cc2c(cc1Nc1ncc(Cl)c(N3CC(C(=O)NO)c4ccccc43)n1)CN(C)CC2 (centres unmarked) [Example 101, 1-(5-Chloro-2-((6-methoxy-2-methyl-1,2,3,4-tetrahydroisoquinolin-7-yl)amino)pyrimidin-4-yl)-N-hydroxyindoline-3-carboxamide]"
≤ 100,500 to 1000,306,"COc1cc2c(cc1Nc1ncc3cc(C#N)n(-c4ccccc4)c3n1)CN(C)CC2 [Example 164, 2-((6-Methoxy-2-methyl-1,2,3,4-tetrahydroisoquinolin-7-yl)amino)-7-phenyl-7H-pyrrolo[2,3-d]pyrimidine-6-carbonitrile]"
≤ 100,≤ 100,100,"COc1cc2c(cc1Nc1ncc(Cl)c(N3CC(C#N)c4ccccc43)n1)CN(C)CC2 (centres unmarked) [Example 99, 1-(5-Chloro-2-((6-methoxy-2-methyl-1,2,3,4-tetrahydroisoquinolin-7-yl)amino)pyrimidin-4-yl)indoline-3-carbonitrile]"
≤ 100,≤ 100,45,COc1cc2c(cc1Nc1ncc(Cl)c(N3CC(C(=O)O)c4cc(F)ccc43)n1)CN(C)CC2 (centres unmarked) [Example 104]
